Test results: US10654802B2, “Indoline derivatives and method for using and producing the same” (ARIZONA BOARD OF REGENTS ON BEHALF OF THE UNIVERSITY OF …, priority 2016, dated 2020)

Tests used:
P-glycoprotein = molecular target: T1, P-glycoprotein (Homo sapiens, UniProt P08183); assay: P-glycoprotein efflux susceptibility in Caco-2 monolayers; type: in vitro ADME; details: apical-to-basolateral vs basolateral-to-apical
T1 construct: endogenous in cells; host or cells: Caco-2
Protocol: (§1) In vitro absorption, distribution, metabolism, and excretion (ADME) were performed on selected analogs to assess their potential for continued pre-clinical development. UANox048 analog has favorable pharmacokinetic/pharmacodynamics properties, including a low molecular weight (384.4 g/mol), calculated log D value (4.07), and polar surface area (57.8 Å^2). The compounds were tested for cellular permeability and P-glycoprotein efflux susceptibility (P-gp efflux). […] P-gp efflux was calculated by comparing permeability through Caco-2 monolayers in both the apical-to-basolateral and basolateral-to-apical directions. Permeability for Caco-2 cells was determined by the lucifer yellow monolayer integrity test. Caco-2 cells were incubated with UANox048 (5 μM, 2 h) and flux of lucifer yellow across cell monolayers was determined by LC-MS/MS using electrospray ionization. Molecular weight, log D, and polar surface area calculations were performed with ChemDraw software.

Nox4 = molecular target: T2, Nox4 (Homo sapiens, UniProt Q9NPH5); assay: Inhibition of Nox4-dependent H2O2 production in HEK/Nox4 cells, Amplex Red assay; type: cell-based
T2 construct: expressed in transfected cells
T2 sequence (Q9NPH5 1-578): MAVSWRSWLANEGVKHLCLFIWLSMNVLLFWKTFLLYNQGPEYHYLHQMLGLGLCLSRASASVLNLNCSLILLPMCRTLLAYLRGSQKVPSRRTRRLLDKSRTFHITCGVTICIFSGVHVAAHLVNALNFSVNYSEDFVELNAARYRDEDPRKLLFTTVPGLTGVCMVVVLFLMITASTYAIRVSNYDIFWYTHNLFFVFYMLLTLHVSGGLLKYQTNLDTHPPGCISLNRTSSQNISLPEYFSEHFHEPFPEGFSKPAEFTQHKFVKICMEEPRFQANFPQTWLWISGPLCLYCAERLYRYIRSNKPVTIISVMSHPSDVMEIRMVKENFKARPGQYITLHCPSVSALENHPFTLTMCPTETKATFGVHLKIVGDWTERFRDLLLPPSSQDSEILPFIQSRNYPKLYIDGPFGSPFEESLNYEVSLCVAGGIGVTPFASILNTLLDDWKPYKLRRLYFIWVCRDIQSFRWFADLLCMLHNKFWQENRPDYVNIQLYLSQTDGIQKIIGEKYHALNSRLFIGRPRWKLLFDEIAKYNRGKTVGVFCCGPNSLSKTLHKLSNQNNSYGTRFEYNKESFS
T2 sequence (P13498 1-195 partner): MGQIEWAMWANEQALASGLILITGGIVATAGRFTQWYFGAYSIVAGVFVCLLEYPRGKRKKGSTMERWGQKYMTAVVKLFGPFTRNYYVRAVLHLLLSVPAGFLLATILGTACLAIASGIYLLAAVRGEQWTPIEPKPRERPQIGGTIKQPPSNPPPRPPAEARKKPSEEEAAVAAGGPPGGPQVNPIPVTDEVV
Protocol: A high-throughput screening (HTS) assay was established for Nox4 inhibition, utilizing HEK293 cells that stably over-express Nox4 (HEK/Nox4 cells), which generate high levels of H2O2(Cheng G et al, Gene: 2001, p. 131-140). Over 30,000 compounds have been screened and medicinal chemistry efforts have led to the synthesis of numerous analogs and the identification of a chemically distinct series of selective Nox4 inhibitors. […] IC-50 was evaluated for UANox048 (FIG. 1B).
HEK cells stably transfected to overexpress Nox4 were treated with varying concentrations of test compounds, DPI (all-Nox inhibitor positive control), or DMSO (vehicle control) and incubated for 1 h (FIG. 1). (FIG. 1A) H2O2 presence was evaluated by Amplex Red assay. […] Values represent means±SEM; n=4. P values were calculated by student's two-tailed t test. *p<0.05, **p<0.01, *** p<0.001.

[1] = Differential scanning calorimetry (DSC) thermal stability; type: physicochemical; details: solid state; room and body temperatures (32-37° C.)
Description: Differential scanning calorimetry (DSC) was used, a highly sensitive thermos-analytical technique to quantify the thermotropic properties and phase transitions of drug candidates. […] X-ray powder diffraction (XRPD) is a non-destructive material science “gold standard” method for measuring the degree of long-range molecular order in the powder. This is critical for solid-state characterization, where drug candidates yield a unique pattern for any given crystalline phase; this provides a ‘molecular fingerprint’ for crystallinity identification. […] Attenuated Total Reflection Fourier Transform Infrared (ATR-FTIR) Spectroscopy is a non-destructive molecular identification tool based on the absorption of infrared light by vibrational transitions in covalent bonds. This provides a ‘molecular fingerprint’ for chemical identification. ATR-FTIR permits fine discrimination between like materials and/or batch-to-batch quality verification; it is used to identify active pharmaceutical ingredients (API). […] Scanning Electron Microscopy (SEM) with Energy Dispersive X-ray (EDX) is used to visualize the synthesized particles in their native solid-state and quantify important particle properties which directly influence formulation, including surface structure, particle morphology and size, and particle size range distribution. […]

Caco-2 cells = assay: Caco-2 permeability; type: in vitro ADME; details: 5 μM, 2 h
Protocol: as §1

[2] = system: HEK cells stably transfected to overexpress Nox4; assay: Cellular viability of HEK/Nox4 cells, CellTiter-Glo Assay; type: cell-based; details: 1 h, FIG. 2C
Protocol: Screening was performed to rule out false positives.
UANoxO48, DMSO (vehicle control), or catalase (known H2O2 scavenger positive control) was added to a cell-free assay containing exogenous H2O2(5 mM) and scavenger activity for H2O2 was assessed by (FIG. 2A) Amplex Red assay and (FIG. 2B) ROS-Glo assay (an HRP-free assay system to rule out assay interference). (FIG. 2C) HEK cells stably transfected to overexpress Nox4 were treated with UANox048, digitonin (an inducer of cell death), or DMSO (vehicle control) and incubated for 1 h. Cellular viability was evaluated by CellTiter-Glo Assay. Values represent means±SEM; n=4; P values were calculated by student's two-tailed t test. *p<0.05, **p<0.01, *** p<0.001.

T1 sequence (P08183 whole entry): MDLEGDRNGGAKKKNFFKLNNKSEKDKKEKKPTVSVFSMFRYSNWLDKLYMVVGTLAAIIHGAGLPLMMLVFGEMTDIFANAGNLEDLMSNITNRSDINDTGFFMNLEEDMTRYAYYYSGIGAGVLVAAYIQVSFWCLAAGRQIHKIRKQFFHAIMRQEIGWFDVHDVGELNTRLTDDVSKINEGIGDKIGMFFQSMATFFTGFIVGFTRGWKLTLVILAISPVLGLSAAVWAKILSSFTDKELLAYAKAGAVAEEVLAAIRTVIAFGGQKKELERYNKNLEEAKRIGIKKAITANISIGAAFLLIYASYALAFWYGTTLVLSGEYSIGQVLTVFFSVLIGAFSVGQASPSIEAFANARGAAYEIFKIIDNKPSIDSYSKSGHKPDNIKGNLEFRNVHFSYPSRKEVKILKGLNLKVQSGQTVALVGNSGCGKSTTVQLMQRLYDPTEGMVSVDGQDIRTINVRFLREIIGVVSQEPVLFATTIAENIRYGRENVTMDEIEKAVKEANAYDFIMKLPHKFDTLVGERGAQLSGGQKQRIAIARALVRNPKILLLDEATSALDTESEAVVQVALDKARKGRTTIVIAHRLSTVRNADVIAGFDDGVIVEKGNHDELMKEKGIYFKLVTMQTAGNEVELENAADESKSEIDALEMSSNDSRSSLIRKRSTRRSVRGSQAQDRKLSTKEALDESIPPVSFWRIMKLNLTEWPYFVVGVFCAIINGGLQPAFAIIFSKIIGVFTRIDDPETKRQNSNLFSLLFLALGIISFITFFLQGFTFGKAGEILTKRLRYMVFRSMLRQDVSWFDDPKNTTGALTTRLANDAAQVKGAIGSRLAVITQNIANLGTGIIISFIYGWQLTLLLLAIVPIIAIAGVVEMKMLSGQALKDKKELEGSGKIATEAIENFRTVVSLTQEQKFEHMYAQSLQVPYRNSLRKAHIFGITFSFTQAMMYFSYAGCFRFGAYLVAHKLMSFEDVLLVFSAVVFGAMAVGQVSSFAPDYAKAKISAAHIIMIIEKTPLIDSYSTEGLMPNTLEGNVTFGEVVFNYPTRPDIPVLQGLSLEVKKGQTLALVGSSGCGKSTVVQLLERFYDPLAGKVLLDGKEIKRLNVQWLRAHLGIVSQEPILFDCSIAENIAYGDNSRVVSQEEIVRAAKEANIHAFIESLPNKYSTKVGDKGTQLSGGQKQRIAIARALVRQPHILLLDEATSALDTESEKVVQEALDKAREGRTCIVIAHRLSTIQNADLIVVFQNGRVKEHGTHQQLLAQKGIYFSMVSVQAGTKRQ

Q: Which results are given for `CC(CNS(=O)(=O)c1ccc(C(F)(F)F)cc1)N1CCc2ccccc21` (stereo not drawn) [UANOX048, N-(2-(indolin-1-yl)propyl)-4-(trifluoromethyl)benzenesulfonamide]?
A: P-gp efflux (P-glycoprotein): no P-gp efflux; remaining activity at 1 µM (Nox4; 1 μM final concentration, 1 h, HEK/Nox4 cells, DMSO vehicle = 1.000, n = 3-10, read-out: H2O2 production relative to vehicle control, Mean): 89.3%; remaining activity at 5 µM (Nox4; 5 μM final concentration, 1 h, HEK/Nox4 cells, DMSO vehicle = 1.000, n = 3-10, read-out: H2O2 production relative to vehicle control, Mean): 76.5%; remaining activity at 10 µM (Nox4; 10 μM final concentration, 1 h, HEK/Nox4 cells, DMSO vehicle = 1.000, n = 3-10, read-out: H2O2 production relative to vehicle control, Mean): 69.3%; IC50 (Nox4; HEK/Nox4 cells, 1 h, Amplex Red, FIG. 1B): 4.8 µM; H2O2 generation by HEK/Nox4 cells (Nox4; varying concentrations, Amplex Red, FIG. 1A): dose-dependent decrease; stability (DSC) [1]: highly stable; Caco-2 permeability (Caco-2 cells): high; cellular viability [2]: does not affect cellular viability
